Test system: mold fungi
Test: Moldicide assay on treated southern yellow pine stakes (ASTM D4445-91, ASTM D3273-00)
Format: cell-based
Conditions: dip-treated stakes, relative to the water control
Procedure: All moldicide assays were conducted via ASTM standard D4445-91 (1998) and ASTM D3273-00 (1986).
Six groups of southern yellow pine stakes (12 replicates) were dip-treated (30 seconds) with treatments 3-1 through 3-6, inoculated with mold spores, incubated, and examined after 12 weeks (Table 3).
Six groups of southern yellow pine stakes (12 replicates) were dip-treated (30 seconds) with treatments 4-1 through 4-6, inoculated with mold spores, incubated, and examined after 12 weeks.

OB(O)O [Boric acid, boric acid]
moldicide activity (in words): no moldicide activity

O.O.O.O.O=BOB1OB(OB=O)OB2OB([O-])OB([O-])OB(O1)O2.[Na+].[Na+] [DOT, disodium octaborate tetrahydrate]
moldicide activity (in words): no moldicide activity

From patent US8900720B2, “Multi-functional wood preservatives based on a borate/fatty acid combination” (Summerdale, Inc, priority 2010, dated 2014)
